Values quoted from earlier work as cited in paper PMC6376154 (International Journal for Parasitology: Drugs and Drug …, 2019).
Like-named read-outs stand apart in the source and are kept apart here.

System: P. falciparum 3D7 asexual blood stage
Conditions: cited from earlier work
[1] = MMV Malaria Box sheet, ref MMV data sheets
[2] = MMV Malaria Box sheet, ref MMV data sheets, read-out: EC50_nM
[3] = source GSK, ref ChEMBL_NTD, read-out: CHEMBL EC50
[4] = MMV Malaria Box data sheet (supplement mmc2.xls), ref MMV data sheet
[5] = MMV Malaria Box data sheet (supplement mmc2.xls), ref MMV data sheet, read-out: EC50_nM
[6] = value(s) per source (GSK, GNF, StJude), separated by semicolon, ref ChEMBL-NTD, read-out: CHEMBL EC50
[7] = MMV Malaria Box data sheet, ref MMV data sheets
[8] = MMV Malaria Box data sheet, ref MMV data sheets, read-out: EC50_nM
[9] = ChEMBL-NTD value per source (GNF, GSK, StJude), several values in a cell follow the order of the sources, read-out: CHEMBL EC50
[10] = source GNF, ref ChEMBL_NTD, read-out: CHEMBL EC50

## COc1ccc(C2NCCc3c2[nH]c2ccccc32)cc1CN1CCN(c2ccc(F)cc2)CC1 (stereo not shown) [MMV019690]
[1]
  percent_inh @ 5 uM: 97%
[2]
  EC50: 934 nM
[3]
  EC50: 776 nM

## O=C(Nc1ccc(N2CCCCC2)c(Cl)c1)c1ccc(Br)o1 [MMV019700]
[4]
  percent_inh @ 5 uM: 96%
[5]
  EC50: 735 nM
[6]
  EC50: 549 nM

## Cc1[nH]c(-c2ccc(F)cc2)cc1C(=O)NC1CCN(Cc2ccccc2)CC1 [MMV019738]
[4]
  percent_inh @ 5 uM: 99%
[5]
  EC50: 771 nM
[6]
  EC50: 1130 nM

## Cc1ccc(C)c(Cn2c(N3CCC(C(=O)NCc4cccs4)CC3)nc3ccccc32)c1 [MMV019741]
[1]
  percent_inh @ 5 uM: 97%
[2]
  EC50: 1330 nM
[3]
  EC50: 938 nM

## Cc1ccc(Cl)cc1N1CCN(CCCNC(=O)C2CCN(c3nc4ccccc4[nH]3)CC2)CC1 [MMV019746]
[4]
  percent_inh @ 5 uM: 97%
[5]
  EC50: 1330 nM
[6]
  EC50: 895 nM

## COc1ccc(C(=O)Nc2ccc3nc(N4CCCCC4)cc(C)c3c2)cc1OC [MMV019758]
[4]
  percent_inh @ 5 uM: 76%
[6]
  EC50: 994 nM

## COc1cccc(C(=O)Nc2ccc(-c3nc4ccccc4[nH]3)cc2)c1 [MMV019762]
[1]
  percent_inh @ 5 uM: 83%
[3]
  EC50: 802 nM

## Cc1cc(C)c2nc(N3CCC(C(=O)NCCCN4CCC(N5CCCCC5)CC4)CC3)sc2c1 [MMV019780]
[4]
  percent_inh @ 5 uM: 98%
[5]
  EC50: 697 nM
[6]
  EC50: 838 nM

## Fc1ccc2[nH]c3c(NCCCN4CCOCC4)ncnc3c2c1 [MMV019871]
[7]
  percent_inh @ 5 uM: 98%
[8]
  EC50: 345 nM
[3]
  EC50: 714 nM

## O=C(NC1CCN(Cc2ccccc2)CC1)c1cc(C(=O)NC2CCN(Cc3ccccc3)CC2)cc(C(=O)NC2CCN(Cc3ccccc3)CC2)c1 [MMV019881]
[9]
  EC50: 1040 nM

## Clc1cc(Br)ccc1-c1ccc(CNCC2CCNCC2)o1 [MMV019918]
[4]
  percent_inh @ 5 uM: 96%
[5]
  EC50: 800 nM
[6]
  EC50: 1510 nM

## O=C(NCCCN1CCC(N2CCCCC2)CC1)C1=Cc2cc(Br)ccc2OC1 [MMV019995]
[1]
  percent_inh @ 5 uM: 99%
[2]
  EC50: 563 nM
[3]
  EC50: 853 nM

## Cc1cc(N(C)C)nc(Nc2ccc(NC(=O)Nc3ccccc3)cc2)n1 [MMV020243]
[9]
  EC50: 134 nM

## O=C(NC1CCN(Cc2ccccc2)CC1)c1cc(-c2ccncc2)nc2ccc(Cl)cc12 [MMV020275]
[4]
  percent_inh @ 5 uM: 92%
[5]
  EC50: 1020 nM
[6]
  EC50: 920 nM

## COc1ccc(-c2cn3c(C(=O)Nc4ccccc4Cl)c(-c4ccccc4)c4c3n2CCCC4)cc1 [MMV020403]
[9]
  EC50: 792 nM

## CCn1c(CN2CCN(Cc3ccccc3)CC2)nc2cc(NC(=O)c3cccs3)ccc21 [MMV020439]
[7]
  percent_inh @ 5 uM: 97%
[8]
  EC50: 512 nM
[3]
  EC50: 402 nM

## O=C(NC1CCN(Cc2ccccc2)CC1)c1cc(-c2cccnc2)nc2ccc(Cl)cc12 [MMV020490]
[1]
  percent_inh @ 5 uM: 91%
[2]
  EC50: 1010 nM
[3]
  EC50: 759 nM

## CC1CN(C(=O)c2sc3ccccc3c2Cl)CC(C)O1 (stereo not shown) [MMV020492]
[7]
  percent_inh @ 5 uM: 95%
[8]
  EC50: 25.5 nM
[3]
  EC50: 87.9 nM

## CNCCCNc1ccnc2cc(Cl)ccc12 [MMV020500]
[7]
  percent_inh @ 5 uM: 98%
[8]
  EC50: 82.2 nM
[3]
  EC50: 62.4 nM

## CN(C)CCCNCc1ccc(-c2ccc(F)c(Cl)c2)o1 [MMV020505]
[1]
  percent_inh @ 5 uM: 96%
[2]
  EC50: 876 nM
[3]
  EC50: 802 nM

## CCN1CCN(Cc2ccc(NC(=O)c3cc4ccc5cccnc5c4[nH]3)cc2)CC1 [MMV020548]
[7]
  percent_inh @ 5 uM: 70%
[8]
  EC50: 361 nM
[3]
  EC50: 848 nM

## CC1CCN(Cc2ccc(NC(=O)c3cc4ccc5cccnc5c4[nH]3)cc2)CC1 [MMV020549]
[7]
  percent_inh @ 5 uM: 97%
[8]
  EC50: 274 nM
[3]
  EC50: 779 nM

## O=C(Nc1ccc(CN2CCOCC2)cc1)c1ccc(-c2cc(Cl)ccc2Cl)o1 [MMV020651]
[1]
  percent_inh @ 5 uM: 97%
[2]
  EC50: 1940 nM
[3]
  EC50: 613 nM

## CCC(O)c1ccc(Br)cc1NC(=O)c1cccc(Cl)c1 (stereo not shown) [MMV020654]
[4]
  percent_inh @ 5 uM: 97%
[5]
  EC50: 640 nM
[6]
  EC50: 1020 nM

## CC(=O)Nc1nnc(SCc2c(C)cc(C(C)(C)C)cc2C)s1 [MMV020700]
[4]
  percent_inh @ 5 uM: 96%
[5]
  EC50: 871 nM
[6]
  EC50: 704 nM

## COc1cc(-c2nc(-c3ccccc3)c(-c3ccccc3)[nH]2)cc(OC)c1O [MMV020750]
[9]
  EC50: 774 nM

## Oc1ccccc1CNCC12CC3CC(CC(C3)C1)C2 [MMV020788]
[7]
  percent_inh @ 5 uM: 96%
[8]
  EC50: 22.6 nM
[3]
  EC50: 279 nM

## COc1ccc(Br)cc1C1Nc2ccc3ccccc3c2C2=C1C(=O)CC(c1ccccc1)C2 (stereo not shown) [MMV020885]
[7]
  percent_inh @ 5 uM: 95%
[8]
  EC50: 180 nM
[3]
  EC50: 590 nM

## Cc1ccc(-c2nc3ccccc3o2)cc1NCc1cc(Cc2ccccc2)ccc1O [MMV020912]
[9]
  EC50: 1030 nM

## CCC(=O)Nc1nnc(Cc2ccc(OC)c(OC)c2)s1 [MMV020942]
[1]
  percent_inh @ 5 uM: 47%
[3]
  EC50: 910 nM

## COc1cc(SC)ccc1C(=O)N1CCCC(C)C1 (stereo not shown) [MMV056726]
2 uM, MMV Malaria Box data sheet (supplement mmc2.xls), ref MMV data sheet
  percent_inh @ 2 uM: 45%
[5]
  EC50: 4000 nM
[6]
  EC50: 9810 nM

## CN(C)c1ccc(N=Cc2ccc(N3CCOCC3)cc2)cc1 [MMV073843]
[9]
  EC50: 175 nM

## CCOc1ccc(C2N(C)c3ccccc3N2C)cc1 [MMV075490]
[4]
  percent_inh @ 5 uM: 72%
[5]
  EC50: 941 nM

## COc1cc2c(cc1OC)C1=NNC(=O)C1=NC(C)(C)C2 [MMV084940]
[2]
  EC50: 1040 nM
[10]
  EC50: 1580 nM

## COc1ccccc1N=C1C(=O)c2ccccc2C(O)=C1N1CCCCC1 [MMV085203]
[7]
  percent_inh @ 5 uM: 98%
[8]
  EC50: 5.3 nM
[10]
  EC50: 28 nM

## CCOc1ccc(-n2cc(-c3ccccc3)c3c(SCc4cc(C)ccc4C)ncnc32)cc1 [MMV085471]
[1]
  percent_inh @ 5 uM: 97%
[2]
  EC50: 1700 nM
[10]
  EC50: 2010 nM

## CCCCCC(=O)N1c2ccccc2N=C2CC(c3ccc(OC)c(OC)c3)CC(O)=C2C1c1ccc(C(F)(F)F)cc1 (stereo not shown) [MMV085583]
[7]
  percent_inh @ 5 uM: 100%
[8]
  EC50: 237 nM
[10]
  EC50: 107 nM

## Cc1ccc(C(=O)c2oc3ccc4c(C)cc(=O)oc4c3c2C)cc1 [MMV086103]
[9]
  EC50: 1030 nM

## COc1cc(CNCCc2ccc(Cl)cc2)cc(OC)c1O [MMV128432]
[9]
  EC50: 6890 nM

## CC(C)(C)c1ccc(C(=O)Nc2nc3ccccc3s2)cc1 [MMV142383]
[4]
  percent_inh @ 5 uM: 81%
[6]
  EC50: 15000 nM

## COc1ccc2nc(C)cc(Nc3ccccc3O)c2c1 [MMV274073]
[5]
  EC50: 686 nM

## CCn1nc(-c2ccc(C(=O)OC)cc2)nc2c(=O)n(C)c(=O)nc1-2 [MMV306025]
[5]
  EC50: 693 nM

## CCOc1ccccc1CN1CCc2nc3cc(C(C)(C)C)nn3c(O)c2C1 [MMV396595]
[2]
  EC50: 1010 nM

## CCOc1c(Cl)cc(CNCC(O)c2ccccc2)cc1OC (stereo not shown) [MMV396632]
[2]
  EC50: 1050 nM

## CCOc1cc(CNC(C)C(O)c2ccccc2)cc(Cl)c1OCC (stereo not shown) [MMV396633]
[5]
  EC50: 1240 nM

## Cc1cc(N2CCCC2)nc(Nc2ccc(NC(=O)CCc3ccccc3)cc2)n1 [MMV396669]
[2]
  EC50: 1070 nM

## O=C(NCC(c1ccsc1)N1CCCCCC1)c1ccc(C(F)(F)F)cc1 (stereo not shown) [MMV396672]
[8]
  EC50: 433 nM

## O=C(CSc1nccn2nc(-c3ccccc3)cc12)Nc1cc(C(F)(F)F)ccc1Cl [MMV396678]
[8]
  EC50: 218 nM

## COc1ccc(-c2cc3c(SCC(=O)Nc4cc(C(F)(F)F)ccc4Cl)nccn3n2)cc1 [MMV396679]
[8]
  EC50: 89.9 nM

## Cc1ccc(-c2cc3c(SCC(=O)Nc4cc(C(F)(F)F)ccc4Cl)nccn3n2)cc1 [MMV396680]
[8]
  EC50: 92.8 nM

## Cc1cc(NC(=O)c2cccc(C(F)(F)F)c2)n(-c2nc(-c3ccc4c(c3)OCO4)cs2)n1 [MMV396681]
[5]
  EC50: 959 nM

## C[n+]1c2ccccc2nc2ccc(NCCO)cc21 [MMV396693]
[8]
  EC50: 296 nM

## CCN(CC)CCNc1ncnc2c1[nH]c1ccc(Cl)cc12 [MMV396703]
[8]
  EC50: 406 nM

## CN1CCN(c2ncnc3c2[nH]c2ccc(Cl)cc23)CC1 [MMV396704]
[2]
  EC50: 1190 nM

## COc1cccc(Cn2c(Oc3ccccc3)nc3c2c(=O)n(C)c(=O)n3C)c1 [MMV396705]
[2]
  EC50: 1390 nM

## CC1(c2ccccc2)Nc2ccccc2-c2nc3ccccc3n21 (stereo not shown) [MMV396715]
[2]
  EC50: 1730 nM

## COc1cccc(C2(C)Nc3ccccc3-c3nc4ccccc4n32)c1 (stereo not shown) [MMV396719]
[5]
  EC50: 1150 nM

## OC(CNCC1CCCO1)Cn1c2ccc(Cl)cc2c2cc(Cl)ccc21 (stereo not shown) [MMV396736]
[5]
  EC50: 1060 nM

## CC(C)CNC(=O)c1c(N)n(CCc2ccccc2F)c2nc3ccccc3nc12 [MMV396744]
[5]
  EC50: 832 nM

## COc1ccc2c(c1)C1(Nc3ccccc3-c3nc4ccccc4n31)C(=O)N2 (stereo not shown) [MMV396749]
[2]
  EC50: 928 nM

## CC(C)(C)CC(C)(C)NCC(O)COc1ccc(Cl)cc1Cl (stereo not shown) [MMV396794]
[5]
  EC50: 1160 nM

## COc1ccc(-c2c(C)nn3c(N)c(C#N)cnc23)cc1OC [MMV396797]
[8]
  EC50: 477 nM

## Cc1cccc(-n2ncc3c(=O)[nH]c(-n4nc(C)cc4NC(=O)c4cc5ccccc5o4)nc32)c1 [MMV403679]
[5]
  EC50: 929 nM

## CCN(CC)CCCNc1ccnc2cc3ccccc3cc12 [MMV665783]
[1]
  percent_inh @ 5 uM: 90%
[10]
  EC50: 33.8 nM

## CC(C)(C)c1ccc(O)c(CNC2CCCCC2)c1 [MMV665785]
[7]
  percent_inh @ 5 uM: 96%
[8]
  EC50: 161 nM
[10]
  EC50: 250 nM
[3]
  EC50: 264 nM

## O=c1cc(NC2CCN(CCCc3ccccc3)CC2)c2cc(Cl)ccc2o1 [MMV665786]
[1]
  percent_inh @ 5 uM: 97%
[2]
  EC50: 846 nM
[10]
  EC50: 408 nM

## CC(NCc1ccccc1)c1cc(Cl)ccc1O (stereo not shown) [MMV665789]
[4]
  percent_inh @ 5 uM: 95%
[5]
  EC50: 603 nM
[6]
  EC50: 592 nM

## FC(F)(F)c1cccc(Nc2nc3ccccc3nc2Nc2cccc(C(F)(F)F)c2)c1 [MMV665794]
[1]
  percent_inh @ 5 uM: 99%
[2]
  EC50: 313 nM
[3]
  EC50: 137 nM
